Read-outs that look alike come from different tables or passages of the source.
Columns and labels:
[1] = target: T1, α-amylase (porcine pancreas source) (Sus scrofa, UniProt P00690); experiment: α-Amylase inhibitory assay (starch iodine protocol); format: biochemical
T1 construct: A porcine pancreas source of α-amylase (50 µL), 25 µL of the samples; from tissue; host or cells: porcine pancreas
T1 sequence (P00690 16-511): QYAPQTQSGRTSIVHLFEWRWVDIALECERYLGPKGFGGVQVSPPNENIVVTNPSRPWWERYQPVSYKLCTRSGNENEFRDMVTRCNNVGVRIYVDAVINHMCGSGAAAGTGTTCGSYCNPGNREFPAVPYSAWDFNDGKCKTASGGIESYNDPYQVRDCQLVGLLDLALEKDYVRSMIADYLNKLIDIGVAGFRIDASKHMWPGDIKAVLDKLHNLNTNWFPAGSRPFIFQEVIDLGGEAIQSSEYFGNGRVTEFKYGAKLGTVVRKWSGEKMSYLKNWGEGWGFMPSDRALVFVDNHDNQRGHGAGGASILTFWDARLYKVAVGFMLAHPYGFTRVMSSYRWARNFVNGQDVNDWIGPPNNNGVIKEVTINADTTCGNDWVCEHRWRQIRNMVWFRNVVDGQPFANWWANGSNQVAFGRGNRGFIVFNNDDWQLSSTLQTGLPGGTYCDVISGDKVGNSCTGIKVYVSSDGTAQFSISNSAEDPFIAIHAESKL
Experimental: In the α-amylase inhibition assay, the starch iodine protocol was used with few changes [62, 63]. A porcine pancreas source of α-amylase (50 µL), 25 µL of the samples, 6 mM NaCl, and phosphate buffer (pH 6.9) solution were mixed in a 96-well microplate and incubated at 37 °C for 10 min. Then, 50 µL of 0.05% starch solution was added to the reaction mixture and further incubated under the same conditions, after which Lugol (100 µL) and HCl (0.1 M, 25 µL) solutions were added to complete the reaction.

[2] = target: α-glucosidase (fungal source from Saccharomyces cerevisiae); experiment: α-Glucosidase inhibitory assay (PNPG); format: biochemical; design: IC50 ± SEM (α-glucosidase): unit not given beside the values; conditions: for IC50 ± SEM (α-glucosidase): Table 2, repeats Table 1, unit not given; for α-Glucosidase IC50: maximum concentration 200 µg/mL, means ± SEM of three measurements
[3] = target: AChE (electric eel source) (Electrophorus electricus, UniProt O42275); experiment: biochemical
Chain of AChE (electric eel source) (O42275 24-633): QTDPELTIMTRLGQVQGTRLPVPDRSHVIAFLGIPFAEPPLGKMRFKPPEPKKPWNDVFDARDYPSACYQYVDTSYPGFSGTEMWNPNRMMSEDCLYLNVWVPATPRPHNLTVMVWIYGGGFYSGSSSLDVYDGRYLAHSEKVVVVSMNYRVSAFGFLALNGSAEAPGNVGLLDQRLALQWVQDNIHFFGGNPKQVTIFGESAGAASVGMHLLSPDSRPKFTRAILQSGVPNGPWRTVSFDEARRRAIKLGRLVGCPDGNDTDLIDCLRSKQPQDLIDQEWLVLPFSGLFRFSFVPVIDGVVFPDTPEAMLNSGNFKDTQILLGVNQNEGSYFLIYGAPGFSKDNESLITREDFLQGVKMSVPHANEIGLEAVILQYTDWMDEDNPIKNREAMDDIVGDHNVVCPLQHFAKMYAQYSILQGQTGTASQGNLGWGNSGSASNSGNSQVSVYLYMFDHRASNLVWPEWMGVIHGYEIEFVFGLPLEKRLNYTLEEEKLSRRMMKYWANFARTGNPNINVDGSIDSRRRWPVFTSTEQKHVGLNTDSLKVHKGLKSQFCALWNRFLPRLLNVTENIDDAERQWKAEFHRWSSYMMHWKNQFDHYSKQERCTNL

[4] = target: BChE (horse serum source) (Equus caballus, UniProt P81908); experiment: biochemical
Chain of BChE (horse serum source) (P81908 whole entry): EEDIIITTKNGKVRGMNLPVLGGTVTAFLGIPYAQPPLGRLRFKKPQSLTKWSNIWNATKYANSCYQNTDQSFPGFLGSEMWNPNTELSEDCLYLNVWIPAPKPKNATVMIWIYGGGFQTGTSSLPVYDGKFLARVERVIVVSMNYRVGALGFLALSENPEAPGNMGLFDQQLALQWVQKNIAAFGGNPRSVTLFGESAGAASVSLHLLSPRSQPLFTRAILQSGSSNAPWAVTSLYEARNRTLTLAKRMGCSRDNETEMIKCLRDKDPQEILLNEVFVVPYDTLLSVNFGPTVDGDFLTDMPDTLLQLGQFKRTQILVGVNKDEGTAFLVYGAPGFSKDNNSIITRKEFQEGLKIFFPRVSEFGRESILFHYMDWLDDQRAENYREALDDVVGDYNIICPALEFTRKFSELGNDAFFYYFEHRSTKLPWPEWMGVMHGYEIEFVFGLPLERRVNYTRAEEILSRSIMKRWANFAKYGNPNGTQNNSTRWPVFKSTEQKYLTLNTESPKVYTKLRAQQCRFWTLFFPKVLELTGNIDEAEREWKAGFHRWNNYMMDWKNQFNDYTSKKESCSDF
Text: A standard spectrophotometric method was used to measure the anticholinesterase activity using both the butyrylcholinesterase (BChE) and acetylcholinesterase (AChE) enzymes, as described elsewhere but with slight modifications [59, 60]. […] The substrates used in the AChE and BChE assays were acetylthiocholine iodide and butyrylthiocholine chloride, respectively. DTNB (5,5′-Dithio-bis(2-nitrobenzoic) acid) was used for monitoring the cholinesterase activity.

[5] = evaluated up to 100 µg/mL, means ± SEM of three measurements, read-out: AChE IC50 (converted)
[6] = evaluated up to 100 µg/mL, means ± SEM of three measurements, read-out: BChE IC50 (converted)
[7] = Table 3, repeats Table 1, unit inferred, read-out: IC50 ± SEM (Butyrylcholinesterase)
[8] = Table 3, repeats Table 1, unit inferred, read-out: IC50 ± SEM (Acetylcholinesterase)
[9] = read-out: IC50 ± SEM (α-amylase), Table 2, repeats Table 1, unit inferred

COc1c(O)cc2c(=O)oc3c(OC)c(O)cc4c(=O)oc1c2c34 [Compound 1, 3,3′-di-O-methyl ellagic acid]
IC50 [1]: 203 µM | IC50 ± SEM (α-glucosidase) [2]: 74.18 ± 0.29 | α-Glucosidase IC50 [2]: 74.18 ± 0.29 µg/mL | IC50 [3, 5]: 142 µM | IC50 [4, 6]: 153 µM

COc1cc2c(=O)oc3c(OC)c(O[C@@H]4OC[C@@H](O)[C@H](O)[C@H]4O)cc4c(=O)oc(c1OC)c2c34 [Compound 2, 3,3′,4′-tri-O-methyl ellagic acid-4-O-β-D-xylopyranoside]
IC50 [1]: 216 µM | IC50 ± SEM (α-glucosidase) [2]: 121.51 ± 0.65 | α-Glucosidase IC50 [2]: 121.51 ± 0.65 µg/mL | IC50 [3, 5]: 129 µM | IC50 [4, 7]: > 210 µM | IC50 [4, 6]: > 210 µM

COc1cc2c(=O)oc3c(OC)c(O[C@@H]4O[C@H](CO)[C@@H](O)[C@H](O)[C@H]4O)cc4c(=O)oc(c1OC)c2c34 [Compound 3, 3,3′,4′-tri-O-methyl ellagic acid-4-O-β-D-glucopyranoside]
IC50 [1]: 217 µM | IC50 ± SEM (α-glucosidase) [2]: 137.51 ± 0.81 | α-Glucosidase IC50 [2]: 137.51 ± 0.81 µg/mL | IC50 [3, 5]: 118 µM | IC50 [4, 6]: 149 µM

COc1c(O)cc2c(=O)oc3c(OC)c(O[C@@H]4O[C@H](CO)[C@@H](O)[C@H](O)[C@H]4O)cc4c(=O)oc1c2c34 [Compound 4, 3,3′-di-O-methyl ellagic acid-4-O-β-D-glucopyranoside]
IC50 [1]: 185 µM | IC50 ± SEM (α-glucosidase) [2]: 97.75 ± 0.49 | α-Glucosidase IC50 [2]: 97.75 ± 0.49 µg/mL | IC50 [3, 5]: 129 µM | IC50 [4, 6]: 182 µM

CC1OC(Oc2c(-c3cc(O)c(O)c(O)c3)oc3cc(O)cc(O)c3c2=O)C(O)C(O)C1O (stereo not drawn) [Compound 5, myricetin-3-O-rhamnoside]
IC50 [1]: 140 µM | IC50 ± SEM (α-glucosidase) [2]: 69.02 ± 0.65 | α-Glucosidase IC50 [2]: 69.02 ± 0.65 µg/mL | IC50 [3, 8]: > 215 µM | IC50 [3, 5]: > 215 µM | IC50 [4]: > 215 µM | IC50 ([4]; read-out: IC50 ± SEM (Butyrylcholinesterase), Table 3, repeats Table 1, unit inferred): > 215 µM

O=C(O)C1=C[C@@H](O)[C@@H](O)[C@H](O)C1 [Compound 6, shikimic acid]
IC50 [1]: > 1150 µM | IC50 [1, 9]: > 1150 µM | IC50 ± SEM (α-glucosidase) [2]: >200 | α-Glucosidase IC50 [2]: >200 µg/mL | IC50 [3, 5]: 317 µM | IC50 [4]: 337 µM

CC1(C)CC[C@]2(C(=O)O)CC[C@]3(C)C(=CC[C@@H]4[C@@]5(C)C[C@@H](O)[C@H](O)[C@@](C)(CO)[C@@H]5CC[C@]43C)[C@@H]2[C@@H]1O [Compound 7, arjungenin]
IC50 [1]: 369 µM | IC50 ± SEM (α-glucosidase) [2]: 192.17 ± 0.78 | α-Glucosidase IC50 [2]: 192.17 ± 0.78 µg/mL | IC50 [3, 5]: 106 µM | IC50 [4, 7]: > 198 µM | IC50 [4, 6]: > 198 µM

CC1(C)CC[C@]2(C(=O)O)CC[C@]3(C)C(=CC[C@@H]4[C@@]5(C)C[C@@H](O)[C@H](O)[C@@](C)(CO)[C@@H]5[C@H](O)C[C@]43C)[C@@H]2C1 [Compound 8, terminolic acid]
IC50 [1]: 289 µM | IC50 ± SEM (α-glucosidase) [2]: 155.84 ± 0.31 | α-Glucosidase IC50 [2]: 155.84 ± 0.31 µg/mL | IC50 [3, 5]: 130 µM | IC50 [4, 7]: > 198 µM | IC50 [4, 6]: > 198 µM

CC1(C)CCC2(C(=O)OC3OC(CO)C(O)C(O)C3O)CCC3(C)C(=CCC4C5(C)CC(O)C(O)C(C)(C)C5CCC43C)C2C1O (stereo not drawn) [Compound 9, 24-deoxysericoside]
IC50 [1]: > 307 µM | IC50 [1, 9]: > 307 µM | IC50 ± SEM (α-glucosidase) [2]: >200 | α-Glucosidase IC50 [2]: >200 µg/mL | IC50 [3, 8]: > 154 µM | IC50 [3, 5]: > 154 µM | IC50 [4, 7]: > 154 µM | IC50 [4, 6]: > 154 µM

CC1(C)CC[C@]2(C(=O)O[C@@H]3O[C@H](CO)[C@@H](O)[C@H](O)[C@H]3O)CC[C@]3(C)C(=CC[C@@H]4[C@@]5(C)C[C@@H](O)[C@H](O)[C@@](C)(CO)[C@@H]5CC[C@]43C)[C@@H]2[C@@H]1O [Compound 10, arjunglucoside I]
IC50 [1]: > 300 µM | IC50 [1, 9]: > 300 µM | IC50 ± SEM (α-glucosidase) [2]: >200 | α-Glucosidase IC50 [2]: >200 µg/mL | IC50 [3, 5]: 148 µM | IC50 [4, 7]: > 150 µM | IC50 [4, 6]: > 150 µM

CC1(C)CC[C@]2(C(=O)O[C@@H]3O[C@H](CO)[C@@H](O)[C@H](O)[C@H]3O)CC[C@]3(C)C(=CC[C@@H]4[C@@]5(C)C[C@@H](O)[C@H](O)[C@@](C)(CO)[C@@H]5[C@H](O)C[C@]43C)[C@@H]2C1 [Compound 11, chebuloside II]
IC50 [1]: > 300 µM | IC50 [1, 9]: > 300 µM | IC50 ± SEM (α-glucosidase) [2]: >200 | α-Glucosidase IC50 [2]: >200 µg/mL | IC50 [3, 8]: > 150 µM | IC50 [3, 5]: > 150 µM | IC50 [4, 7]: > 150 µM | IC50 [4, 6]: > 150 µM

Reference: PMC11174011, “In Vitro and Molecular Docking Evaluation of the Anticholinesterase and Antidiabetic Effects of Compounds from Terminalia macroptera Guill. & Perr. (Combretaceae)” (Molecules, 2024)
